What all share (assay type): cell-based
Test [1] has as its target T1, GluR1 AMPA receptor (Rattus norvegicus, UniProt P19490).
T1 construct: expressed in transfected cells; host or cells: Xenopus oocytes injected with GluR1 cRNA
Description: Kainate-induced currents, Xenopus oocytes injected with GluR1 cRNA. The source says: (§1) Plasmids were obtained from the following individuals: Dr. Suzanne Zukin (Albert Einstein College of Medicine, Bronx, N.Y.), NR1100; Dr. Shigetada Nakanishi (Kyoto University Faculty of Medicine, Kyoto, Japan), NR2A; Dr. Stephen Heinemann (Salk Institute, San Diego, Calif.), GluR1 (flop), GluR3 (flop), and GluR6. Plasmids were linearized with BamH1 (NR1100), XhoI (NR2A, GluR1, GluR3) or XbaI (GluR6) prior to in vitro transcription with T3 (GluR1, GluR3, GluR6) or T7 (NR1100, NR2A) RNA polymerase using the Message Machine kit (Ambion, Austin, Tex.). […] RNA solutions (50-70 nl) were injected into oocytes for delivery of NR1100 (5 ng), NR1100:NR2A (1:10 ng), GluR1 (5 ng). GluR3 (5 ng), or GluR6 (20 ng). Oocytes were incubated in ND96 at 18-20° C. for 3-7 days prior to electrophysiological recording.
(§2) Steroid solutions were prepared as 70-100 mM frozen stocks in dimethyl sulfoxide (DMSO). The final DMSO concentration of all recording solutions was between 0.1% to 0.5% and was constant within an experiment.
(§3) Perfusion control and data acquisition were carried out using an automated oocyte electrophysiology workstation that was developed for the rapid collection of concentration-response data and real-time waveform analysis (Yaghoubi et al., Soc. Neurosci. Abstr. 20: 1109 (1995)). This system is implemented on a Macintosh IIci computer (Apple Computer, Cupertino, Calif.) equipped with MacA-DIOS II data acquisition and control hardware (GW Instruments, Somerville, Mass.). Drug application is controlled by the computer through a series of valves, using custom-written software based on the SuperScope II development environment, improving the efficiency and reproducibility of data collection. Experiments were carried out using an Axoclamp-2A voltage clamp amplifier (Axon Instruments, Foster City, Calif.) in two-electrode voltage clamp mode. Intracellular microelectrodes (1-3 MΩ) were filled with 3 M KCl. […] Membrane potential was clamped at −60 to −70 mV and stepped to −100 mV at the start of data acquisition unless otherwise stated. […] Current and voltage recordings were digitized at 100 Hz for analysis. GluR6 injected oocytes were treated for 10 min with 10 μg/ml concanavalin A to prevent fast desensitization.
(§4) Results are expressed as mean±S.E.M. Statistical comparisons were made using Student's t-test.

For test [2], the target named is T2, GluR6 kainate receptor (Rattus norvegicus, UniProt P42260).
T2 construct: expressed in transfected cells; host or cells: Xenopus oocytes injected with GluR6 cRNA (concanavalin A treated)
Description: Kainate-induced currents, Xenopus oocytes injected with GluR6 cRNA.
Excerpt: as §1, §2, §3, §4

Test [3] deals with primary cultures of rat hippocampal neurons. Description: NMDA-induced neuronal death, trypan blue exclusion.
The subject of test [4] is NR1111/NR2A. In words: NMDA-induced currents of NR1 splice variants, Xenopus oocytes, Example 4. On the procedure: Overnight cultures (500 ml) of transformed bacterial cells were prepared in order to grow sufficient quantities for maxiprep isolation of the plasmid CDNA. Maxipreps were done using a Sorvall RC-5B ultracentrifuge, Qiagen columns and cDNA was quantitated with spectrophotometry (OD260 and OD260/ OD280 ratio). The resulting plasmid cDNA was linearized by digestion with an appropriate restriction enzyme that cleaves distal to the cDNA insert (XhoI for NR2A or NotI for NR1100, NR1000, NR1111, NR1011, NR1101, NR1001). […] The samples were stored at −20° C. until use.
In vitro transcription was performed using the Ambion mMessage mMachine kit with T7 (NR1100, NR1000, NR1111, NR1011, NR1101, NR1001) RNA polymerase. The reaction was assembled on ice and allowed to incubate at 37° C. for 1-2 hr. The resulting mRNA was precipitated (reaction termination) using lithium chloride/5 mM EDTA solution and dissolved in RNase-free H2O. The concentration (OD260) and OD260/OD280 ratio (should be more than 1.5) was determined by spectrophotometer. The yield of mRNA was generally 15-30 μg. mRNA was stored at −80° C. until use.
Intracellular recording microelectrodes were fabricated from 100 μl borosilicate glass disposable micropipettes using a 2-step protocol on a standard horizontal Flaming-Brown micropipette puller.

[5] abbreviates: acute 15 min NMDA exposure, +100 μM 3α5βS.
Setting [6] is: acute 15 min NMDA exposure, DMSO vehicle.
Setting [7] is: chronic 16 hour NMDA exposure, +100 μM 3α5βS.
The mark [8] stands for this setting: chronic 16 hour NMDA exposure, DMSO vehicle.

Where a name gives a salt, the structure may show the parent alone. Read-outs that look alike come from different tables or passages of the source.

T2 sequence (P42260 32-908): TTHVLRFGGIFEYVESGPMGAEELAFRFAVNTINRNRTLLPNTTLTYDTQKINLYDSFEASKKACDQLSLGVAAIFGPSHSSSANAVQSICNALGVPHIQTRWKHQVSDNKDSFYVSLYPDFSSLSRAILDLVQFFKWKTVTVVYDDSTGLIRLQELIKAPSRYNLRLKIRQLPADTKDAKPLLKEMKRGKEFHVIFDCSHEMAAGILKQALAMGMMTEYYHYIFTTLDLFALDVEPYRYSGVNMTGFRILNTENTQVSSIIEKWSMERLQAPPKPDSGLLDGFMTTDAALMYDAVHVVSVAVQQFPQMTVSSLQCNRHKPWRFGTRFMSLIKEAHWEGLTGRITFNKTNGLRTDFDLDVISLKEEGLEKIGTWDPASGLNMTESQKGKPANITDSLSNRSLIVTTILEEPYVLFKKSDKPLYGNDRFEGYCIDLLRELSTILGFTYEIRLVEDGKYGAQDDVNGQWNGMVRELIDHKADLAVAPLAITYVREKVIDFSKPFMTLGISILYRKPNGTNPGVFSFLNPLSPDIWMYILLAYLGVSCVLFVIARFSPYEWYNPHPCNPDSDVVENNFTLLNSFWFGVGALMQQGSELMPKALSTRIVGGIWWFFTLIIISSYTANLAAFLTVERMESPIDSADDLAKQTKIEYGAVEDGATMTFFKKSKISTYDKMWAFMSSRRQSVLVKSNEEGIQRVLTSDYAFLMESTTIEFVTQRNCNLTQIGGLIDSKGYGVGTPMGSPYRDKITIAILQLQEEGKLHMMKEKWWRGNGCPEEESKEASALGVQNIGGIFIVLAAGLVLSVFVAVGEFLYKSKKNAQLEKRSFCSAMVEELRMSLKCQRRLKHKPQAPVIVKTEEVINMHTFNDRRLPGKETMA
T1 sequence (P19490 19-907): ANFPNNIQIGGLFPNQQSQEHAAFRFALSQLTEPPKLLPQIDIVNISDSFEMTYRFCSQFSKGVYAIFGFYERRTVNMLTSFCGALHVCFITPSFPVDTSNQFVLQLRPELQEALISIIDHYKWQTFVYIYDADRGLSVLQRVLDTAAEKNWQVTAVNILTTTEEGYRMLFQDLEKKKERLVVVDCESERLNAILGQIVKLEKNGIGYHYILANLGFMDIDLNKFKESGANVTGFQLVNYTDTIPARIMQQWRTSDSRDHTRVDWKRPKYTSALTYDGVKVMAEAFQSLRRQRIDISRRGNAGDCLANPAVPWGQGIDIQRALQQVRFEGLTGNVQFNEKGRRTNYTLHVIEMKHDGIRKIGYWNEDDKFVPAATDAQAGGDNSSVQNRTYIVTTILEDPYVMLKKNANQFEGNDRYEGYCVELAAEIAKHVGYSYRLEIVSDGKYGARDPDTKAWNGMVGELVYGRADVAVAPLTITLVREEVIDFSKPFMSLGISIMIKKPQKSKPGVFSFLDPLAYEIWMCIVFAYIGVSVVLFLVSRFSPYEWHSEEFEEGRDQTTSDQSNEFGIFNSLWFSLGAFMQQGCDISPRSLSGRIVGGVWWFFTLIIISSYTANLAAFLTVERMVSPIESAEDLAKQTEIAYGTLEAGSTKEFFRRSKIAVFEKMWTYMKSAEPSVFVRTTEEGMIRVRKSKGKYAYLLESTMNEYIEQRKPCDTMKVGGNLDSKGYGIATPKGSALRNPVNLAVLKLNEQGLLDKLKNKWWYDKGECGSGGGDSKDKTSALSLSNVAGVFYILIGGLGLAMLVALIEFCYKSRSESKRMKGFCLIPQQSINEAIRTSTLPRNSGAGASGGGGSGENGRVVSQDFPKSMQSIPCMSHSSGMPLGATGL

In general, EC50 refers to the concentration that produces a half-maximal response. Consider `CC(=O)[C@H]1CC[C@H]2[C@@H]3CC[C@@H]4C[C@H](OS(=O)(=O)O)CC[C@]4(C)[C@H]3CC[C@]12C` [3α5βS, 3α5β-pregnanolone sulfate], for which the “Percentage change in kainate response” value in test [1] is reported as −47 ± 12(3) %. Besides, the “Percentage change in kainate response” value in test [2] was −34 ± 5(7) %. Besides, the EC50 in test [3] (Rattus norvegicus, Hippocampal neuron, read-out: 3α5βS EC50, inhibition of NMDA-induced neuronal death) came out at 45 µM. In addition, in test [3] (acute 30 μM NMDA exposure), the “3α5βS nH, inhibition of neuronal death” value is recorded as 2.5 and the “maximal inhibition (Imax) of cell death” value is given as 97%. Further, the “inhibition of NMDA-induced neuronal death” value in test [3] (acute 30 μM NMDA, steroid 100 μM (3α5β 50 μM)) was “nearly eliminates the toxic effects”. The “difference in percentage inhibition between NR1011/NR2A and NR1111/NR2A” value in test [4] (100 μM 3α5βS) turned out to be 5%.
With `CN[C@H](CC(=O)O)C(=O)O` [NMDA, N-methyl-D-aspartate], the “NMDA Emax, neuronal death” value was found to be 63% in test [3] (setting [5]), 80% in test [3] (setting [6]), 70% in test [3] (setting [7]) and 86% in test [3] (setting [8]). The “NMDA nH, neuronal death” value stood at 1.8 in test [3] (setting [5]), 2.1 in test [3] (setting [6]), 2.0 in test [3] (setting [7]) and 1.9 in test [3] (setting [8]). The EC50 in test [3] (read-out: NMDA EC50 for neuronal death, acute 15 min NMDA exposure, +100 μM 3α5βS) was 71 µM; in test [3] (read-out: NMDA EC50 for neuronal death, acute 15 min NMDA exposure, DMSO vehicle) it was 28 µM; in test [3] (read-out: NMDA EC50 for neuronal death, chronic 16 hour NMDA exposure, +100 μM 3α5βS), 15 µM.
Regarding pregnenolone sulfate [PS], the “PS Emax, percentage change in kainate-induced current” value in test [1] (GluR1, 100 μM kainate) was −99%. The “inhibition of kainate response” value in test [1] (GluR1, 200 μM PS) amounted to 85±4%; in test [2] (GluR6, 500 μM PS) it was 64±2%. The “reduction of kainate Imax” value in test [1] (GluR1, PS 100 μM) was found to be 83%; in test [2] (GluR6, PS 100 μM) it was 33%. The “inhibition of the response to kainate” value in test [1] (GluR1, steroid 100 μM) was “over 70%”; in test [2] (GluR6, steroid 100 μM), 42%. Also, the “Percentage change in kainate response” value in test [1] (GluR1, steroid 100 μM, 100 μM kainate, −100 mV) is reported as −85 ± 1(8) %; in test [2] (GluR6, steroid 100 μM, 10 μM kainate, −100 mV), −42 ± 3(8) %. The “PS nH, inhibition of kainate-induced current” value in test [2] (GluR6, 10 μM kainate) was found to be 0.29. Moreover, the “difference in mrc between NR1011/NR2A and NR1111/NR2A” value in test [4] came out at 1.2 fold; in test [4] (100 μM PS, pH 6.5), 1.8 fold; in test [4] (100 μM PS, pH 7.5), 1.6 fold. The “difference in percentage potentiation between NR1011/NR2A and NR1111/NR2A” value in test [4] (100 μM PS, pH 7.5) turned out to be 106%; in test [4] (100 μM PS, pH 8.5), 91%.

Source of the values: US6623933B1 (priority 1999, dated 2003).
